In US10517889B2, “Modulators of SMAD7 expression” (Ionis Pharmaceuticals, Inc., priority 2017, dated 2019):
Strand notation (5' to 3'): a small letter for the sugar, then the base; units joined by * are phosphorothioate-linked, units joined directly phosphodiester-linked; [ ] holds rarer units or linkages, { } end groups; capitals alone tell only the bases. k = constrained ethyl (cEt); [5mC] = 5-methylcytosine; d = 2'-deoxy (DNA)

System: human SMAD7 mRNA
Experiment: Antisense inhibition of human SMAD7 mRNA expression in Hep3B cells by 3-10-3 cEt gapmers, 10,000 nM, electroporation (Example 2)
Assay type: cell-based
Conditions: approximately 24 hours
How it was run: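 qRT-PCR (RTS5062) of SMAD7 mRNA, normalised to RIBOGREEN total RNA, gave percent inhibition relative to untreated controls. Hep3B cells at 20,000 per well received 10,000 nM oligonucleotide by electroporation, with ~24 h treatment.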

[1] = Hep3B cells, electroporation with 10,000 nM antisense oligonucleotide, RTS5062, percent inhibition of SMAD7 mRNA relative to untreated control cells
[2] = Hep3B cells, electroporation with 10,000 nM antisense oligonucleotide, primer probe set RTS5062, relative to untreated control cells
[3] = SMAD7 mRNA, Hep3B cells, 10,000 nM antisense oligonucleotide, electroporation, primer probe set RTS5062, relative to untreated control cells
[4] = Hep3B cells, 10,000 nM antisense oligonucleotide, electroporation, RT-PCR primer probe set RTS5062, relative to untreated control cells
[5] = SMAD7 mRNA, Hep3B cells, electroporation with 10,000 nM antisense oligonucleotide, primer probe set RTS5062, relative to untreated control cells
[6] = Hep3B cells, electroporation with 10,000 nM antisense oligonucleotide, SMAD7 mRNA by RT-PCR (RTS5062), relative to untreated control cells

Substance: 799705 (antisense kA*kA*k[5mC]*dT*dT*dA*dA*dA*dA*dT*dG*dT*dG*k[5mC]*k[5mC]*kA) [compound 799705]
- % Inhibition [1]: 26%

Substance: 799013 (kT*k[5mC]*k[5mC]*dA*dT*dA*dA*dG*dA*dG*dA*d[5mC]*dA*k[5mC]*kA*kA; antisense) [compound 799013]
- % Inhibition [2]: 37%

Substance: 799614 (kG*kG*k[5mC]*d[5mC]*dT*dT*dT*dG*dA*dG*d[5mC]*dA*d[5mC]*kA*k[5mC]*k[5mC]; antisense) [compound 799614]
- % inhibition of SMAD7 mRNA expression (Hep3B cells, electroporation, 10,000 nM antisense oligonucleotide, RTS5062, relative to untreated control cells): 37%

Substance: 800843 (antisense kT*k[5mC]*kG*dG*d[5mC]*d[5mC]*dA*d[5mC]*dA*d[5mC]*dA*d[5mC]*d[5mC]*kT*k[5mC]*kA) [compound 800843]
- % Inhibition [3]: 32%

Substance: 798878 (k[5mC]*kT*kG*d[5mC]*dT*dG*d[5mC]*dA*dT*dA*dA*dA*d[5mC]*kT*k[5mC]*kG; antisense) [compound 798878]
- % Inhibition [4]: 49%

Substance: 829907 (antisense kA*k[5mC]*k[5mC]*dG*dG*d[5mC]*dT*dG*dT*dT*dG*dA*dA*kG*kA*kT) [compound 829907]
- % Inhibition [5]: 23%

Substance: 799330 (kG*kG*kT*dA*dT*dG*d[5mC]*dA*d[5mC]*dA*d[5mC]*dT*d[5mC]*kT*k[5mC]*k[5mC]; antisense) [compound 799330]
- % Inhibition [6]: 45%

Substance: 799742 (antisense kA*kT*kA*dT*dT*dT*d[5mC]*d[5mC]*dT*dG*dT*dT*dA*kA*k[5mC]*kT) [compound 799742]
- % Inhibition [1]: 23%

Substance: 799124 (antisense k[5mC]*k[5mC]*kG*d[5mC]*dT*dT*dG*d[5mC]*dT*dG*dG*d[5mC]*d[5mC]*kT*kA*kA) [compound 799124]
- % inhibition of SMAD7 mRNA expression [2]: 17%

Substance: 829779 (antisense kG*kG*kG*dA*dG*d[5mC]*dG*dA*dG*dT*dA*dG*dG*kA*k[5mC]*kG) [compound 829779]
- % Inhibition [3]: 58%

Substance: 799133 (antisense kG*k[5mC]*kT*dA*dA*dG*d[5mC]*dA*dT*dG*dT*d[5mC]*d[5mC]*k[5mC]*kT*k[5mC]) [compound 799133]
- % Inhibition [2]: 17%

Substance: 798981 (antisense k[5mC]*kA*kT*dA*d[5mC]*dA*d[5mC]*dT*dG*dT*dG*dT*dT*kT*kG*kG) [compound 798981]
- % Inhibition [2]: 58%

Substance: 799882 (kT*kT*kT*dG*dA*dA*d[5mC]*dA*dT*dT*dT*dA*d[5mC]*kT*kG*k[5mC]; antisense) [compound 799882]
- % Inhibition [6]: 41%

Substance: 800012 (kG*kA*kG*dG*dA*d[5mC]*dT*dT*d[5mC]*dA*dG*d[5mC]*d[5mC]*kT*kG*kT; antisense) [compound 800012]
- % Inhibition [4]: 49%

Substance: 798897 (kG*kG*k[5mC]*dG*dG*dG*dT*dG*dT*dA*dG*d[5mC]*dA*k[5mC]*kT*kG; antisense) [compound 798897]
- % Inhibition [4]: 60%

Substance: 798991 (antisense k[5mC]*k[5mC]*kT*dG*dA*d[5mC]*dA*dA*dG*dT*dG*dA*dA*kA*kT*kG) [compound 798991]
- % inhibition of SMAD7 mRNA expression [2]: 23%

Substance: 799587 (kT*kT*k[5mC]*dA*d[5mC]*dA*dG*dG*dT*d[5mC]*dA*d[5mC]*dA*kT*kG*kG; antisense) [compound 799587]
- % Inhibition [1]: 42%

Substance: 798835 (k[5mC]*kG*kA*dG*dG*d[5mC]*dA*dA*dA*dA*dG*d[5mC]*d[5mC]*kA*kT*kT; antisense) [compound 798835]
- % Inhibition [4]: 22%

Substance: 799290 (antisense kG*kA*kT*dT*dA*dT*dT*dA*dA*dT*dG*dG*dT*k[5mC]*kT*kG) [compound 799290]
- % Inhibition [1]: 16%

Substance: 829923 (kA*kG*kT*dA*dT*d[5mC]*dA*dT*dA*d[5mC]*dG*dA*dG*kT*kG*kT; antisense) [compound 829923]
- % Inhibition [5]: 54%
